{
  "source": "paper PMC9191229",
  "about": "“Molecular and Biochemical Analysis of Duplicated Cytosolic CuZn Superoxide Dismutases of Rice and in silico Analysis in Plants” (Frontiers in Plant Science, 2022)",
  "key": {"OsCSD4": {"tested_on": "T1, OsCSD4", "T1 construct": "gene SODCC2", "test": "SOD activity, NBT reduction assay (NADH/PMS), A560", "format": "biochemical, Oryza sativa", "details": "1 h pre-incubation with DDC (0-2.0 mM); 1 U enzyme; Tris-HCl 50 mM pH 8.0, EDTA 0.1 mM"}, "OsCSD1": {"tested_on": "T2, OsCSD1", "T2 construct": "gene SODCC1", "test": "SOD activity, NBT reduction assay (NADH/PMS), A560", "format": "biochemical, Oryza sativa", "details": "1 h pre-incubation with DDC (0-2.0 mM); 1 U enzyme; Tris-HCl 50 mM pH 8.0, EDTA 0.1 mM"}},
  "data": [
    {"compound": "CCN(CC)C(=S)S", "note": "[diethyldithiocarbamate]", "values": [
      {"measurement": "IC50", "setting": "OsCSD4", "value": 500, "unit": "µM"},
      {"measurement": "IC50", "setting": "OsCSD1", "value": 520, "unit": "µM"}
    ]}
  ]
}
